Reference: patent US11059780B2, “Substituted pyrrolidine compound and use thereof” (Takeda Pharmaceutical Company Limited, priority 2017, dated 2021)

These molecules were tested against T1, human orexin type 2 receptor (hOX2R) (Homo sapiens, UniProt O43614) (assay: Measurement of orexin type 2 receptor agonist activity (Fluo-4 calcium fluorescence, CHO cells forcibly expressing human OX2 receptor)). Settings: test compound 3 μM, DMSO = 0%, orexin A (human) 10 nM = 100%.
T1 construct: expressed in transfected cells
T1 sequence (O43614 1-444): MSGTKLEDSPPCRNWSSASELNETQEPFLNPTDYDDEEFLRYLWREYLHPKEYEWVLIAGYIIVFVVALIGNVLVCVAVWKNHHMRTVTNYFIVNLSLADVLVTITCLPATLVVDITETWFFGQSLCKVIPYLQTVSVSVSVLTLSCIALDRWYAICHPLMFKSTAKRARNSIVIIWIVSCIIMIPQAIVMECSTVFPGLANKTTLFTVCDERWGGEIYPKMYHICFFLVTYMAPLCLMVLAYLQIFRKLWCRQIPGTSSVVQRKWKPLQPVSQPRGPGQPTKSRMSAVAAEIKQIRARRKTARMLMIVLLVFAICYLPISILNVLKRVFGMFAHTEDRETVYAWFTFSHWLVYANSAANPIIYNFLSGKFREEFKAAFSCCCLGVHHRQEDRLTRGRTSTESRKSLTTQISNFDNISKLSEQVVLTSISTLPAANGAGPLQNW
Type: cell-based
Text: Experimental Example 1: Obtainment of Cell Stably Expressing Human Orexin Type 2 Receptor (hOX2R)
To obtain a cell clone stably expressing human orexin type 2 receptor, human orexin type 2 receptor cDNA was inserted into pcDNA3.1(+) plasmid vector (Invitrogen), and a plasmid DNA for expression of human orexin type 2 receptor (pcDNA3.1(+)/hOX2R) was cloned. The plasmid DNA was introduced into CHO-dhfr cell by an electroporation method, and human orexin type 2 receptor expressing clone cells were obtained by limiting dilution method by using G418 drug resistance as a selection marker.
Experimental Example 2: Measurement of Orexin Type 2 Receptor Agonist Activity
CHO cells forcibly expressing human OX2 receptor were seeded in each well of 384 well black transparent bottom plate (BD Falcon) at 7,500 cells/well, and cultured for one day in a 5% CO2 incubator at 37° C. After removal of the medium in the cell plate, assay buffer A containing a calcium indicator (HBSS (Life Technologies), 20 mM HEPES (Life Technologies), 0.1% BSA (Wako Pure Chemical Industries, Ltd.), 2.5 μg/mL Fluo-4 AM (DOJINDO Chemical), 0.08% Pluronic F127 (DOJINDO Chemical), 1.25 mM probenecid (DOJINDO Chemical)) was added at 30 μL/well. The plate was stood for 30 min in a 5% CO2 incubator at 37° C., and further stood at room temperature for 30 min. A test compound prepared by diluting with assay buffer B (HBSS, 20 mM HEPES, 0.1% BSA) was added at 10 μL/well, and the fluorescence value was measured by FDSSpCELL (Hamamatsu Photonics K.K.) every one sec for 1 min, and thereafter every two sec for 1 min 40 sec. The activity (%) of the test compound was calculated assuming that variation in the fluorescence value when DMSO was added instead of the test compound was 0% […], and variation in the fluorescence value when orexin A (human) (PEPTIDE INSTITUTE, INC.) was added at the final concentration of 10 nM was 100% […]. The activity of each compound at the concentration of 3 μM was shown below.

Row | SMILES | OX2R agonist activity (3 μM, %)
1 | CO[C@@H]1CN(C(=O)c2cc(C)ccc2C)C[C@H]1Oc1cccc(CS(=O)(=O)N(C)C2CCOCC2)c1 (relative stereo) [Example 31, trans-1-(3-((1-(2,5-dimethylbenzoyl)-4-methoxypyrrolidin-3-yl)oxy)phenyl)-N-methyl-N-(tetrahydro-2H-pyran-4-yl)methanesulfonamide] | 94%
2 | COc1cccc(OC)c1C(=O)N1C[C@@H](OC)[C@H](Oc2cccc(CS(=O)(=O)N3CCCC3c3ccccn3)c2)C1 (relative stereo) [Example 100, trans-(2,6-dimethoxyphenyl)(3-methoxy-4-(3-(((2-(pyridin-2-yl)pyrrolidin-1-yl)sulfonyl)methyl)phenoxy)pyrrolidin-1-yl)methanone] | 93%
3 | COc1ccccc1OC(=O)N1C[C@@H](OC)[C@H](Oc2cccc(NS(=O)(=O)N3CC4CC4C3)c2)C1 (stereo partly drawn) [Example 157, 2-methoxyphenyl(3R,4R)-3-(3-((3-azabicyclo[3.1.0]hex-3-ylsulfonyl)amino)phenoxy)-4-methoxypyrrolidine-1-carboxylate] | 83%
4 | COC1CN(C(=O)c2cc(C)ccc2C)CC1Oc1cccc(NS(=O)(=O)N2C[C@@H]3CC[C@@H](C2)O3)c1 (relative stereo) [Example 80, trans-N-(3-((1-(2,5-dimethylbenzoyl)-4-methoxypyrrolidin-3-yl)oxy)phenyl)-8-oxa-3-azabicyclo[3.2.1]octane-3-sulfonamide] | 94%
5 | COc1ccc(Cl)cc1C(=O)N1C[C@@H](OC)[C@H](Oc2cccc(CS(=O)(=O)N3CCCC3c3ccccn3)c2)C1 (relative stereo) [Example 108, trans-(5-chloro-2-methoxyphenyl)(3-methoxy-4-(3-(((2-(pyridin-2-yl)pyrrolidin-1-yl)sulfonyl)methyl)phenoxy)pyrrolidin-1-yl)methanone] | 74%
6 | CO[C@@H]1CN(C(=O)Oc2c(C)cccc2C)C[C@H]1Oc1cccc(NS(=O)(=O)N2CC3CC3C2)c1 (stereo partly drawn) [Example 148, 2,6-dimethylphenyl(3R,4R)-3-(3-((3-azabicyclo[3.1.0]hex-3-ylsulfonyl)amino)phenoxy)-4-methoxypyrrolidine-1-carboxylate] | 76%
7 | COc1cccc(C)c1C(=O)N1CC(OC)C(Oc2cccc(CS(=O)(=O)N3CCCC3c3ccc(C)nc3C)c2)C1 (stereo not drawn) [Example 124, trans-3-(3-(((2-(2,6-dimethylpyridin-3-yl)pyrrolidin-1-yl)sulfonyl)methyl)phenoxy)-4-methoxypyrrolidin-1-yl)(2-methoxy-6-methylphenyl)methanone] | 99%
8 | CCc1cccc(C)c1C(=O)N1C[C@@H](OC)[C@H](Oc2cccc(CS(=O)(=O)N(CC)C3CCOCC3)c2)C1 [Example 158, N-ethyl-1-(3-(((3R,4R)-1-(2-ethyl-6-methylbenzoyl)-4-methoxypyrrolidin-3-yl)oxy)phenyl)-N-(tetrahydro-2H-pyran-4-yl)methanesulfonamide] | 83%
9 | CO[C@@H]1CN(C(=O)c2c(C)cccc2C)C[C@H]1Oc1cccc(NS(=O)(=O)N2CC3CC3C2)c1 (stereo partly drawn) [Example 120, N-(3-(((3R,4R)-1-(2,6-dimethylbenzoyl)-4-methoxypyrrolidin-3-yl)oxy)phenyl)-3-azabicyclo[3.1.0]hexane-3-sulfonamide] | 107%
10 | CCc1cccc(C)c1C(=O)N1C[C@@H](OC)[C@H](Oc2cccc(CS(=O)(=O)N(C)C3CCOCC3)c2)C1 [Example 146, 1-(3-(((3R,4R)-1-(2-ethyl-6-methylbenzoyl)-4-methoxypyrrolidin-3-yl)oxy)phenyl)-N-methyl-N-(tetrahydro-2H-pyran-4-yl)methanesulfonamide] | 105%
11 | COc1ccccc1C1CCCN1S(=O)(=O)Nc1cccc(O[C@@H]2CN(C(=O)c3cc(C)ccc3C)C[C@H]2OC)c1 (relative stereo) [Example 66, trans-N-(3-((1-(2,5-dimethylbenzoyl)-4-methoxypyrrolidin-3-yl)oxy)phenyl)-2-(2-methoxyphenyl)pyrrolidine-1-sulfonamide] | 72%
12 | CO[C@@H]1CN(C(=O)c2cc(C)ccc2C)C[C@H]1Oc1cccc(CS(=O)(=O)N2CCOCC2CO)c1 (relative stereo) [Example 11, trans-(2,5-dimethylphenyl)(3-(3-(((3-(hydroxymethyl)morpholin-4-yl)sulfonyl)methyl)phenoxy)-4-methoxypyrrolidin-1-yl)methanone] | 62%
13 | CO[C@@H]1CN(C(=O)c2c(C)cccc2C2CC2)C[C@H]1Oc1cccc(OS(=O)(=O)N(C)C2CCOCC2)c1 (relative stereo) [Example 163, trans-3-((1-(2-cyclopropyl-6-methylbenzoyl)-4-methoxypyrrolidin-3-yl)oxy)phenyl methyl(tetrahydro-2H-pyran-4-yl)sulfamate] | 97%
14 | COC1CN(C(=O)c2cc(C)ccc2C)CC1Oc1cccc(CS(=O)(=O)N(C)[C@@H]2CCOC[C@H]2F)c1 (relative stereo) [Example 142, trans-1-(3-((1-(2,5-dimethylbenzoyl)-4-methoxypyrrolidin-3-yl)oxy)phenyl)-N-(3-fluorotetrahydro-2H-pyran-4-yl)-N-methylmethanesulfonamide] | 115%
15 | CO[C@@H]1CN(C(=O)c2cc(C)ccc2C)C[C@H]1Oc1cccc(CS(=O)(=O)N2CCCC2)c1 (relative stereo) [Example 5, trans-(2,5-dimethylphenyl)(3-methoxy-4-(3-((pyrrolidin-1-ylsulfonyl)methyl)phenoxy)pyrrolidin-1-yl)methanone] | 32%
16 | CO[C@@H]1CN(C(=O)c2cc(C)ccc2C)C[C@H]1Oc1cccc(CS(=O)(=O)N2CCC23CN(C(=O)OC(C)(C)C)C3)c1 (relative stereo) [Example 32, tert-butyl trans-1-((3-((1-(2,5-dimethylbenzoyl)-4-methoxypyrrolidin-3-yl)oxy)benzyl)sulfonyl)-1,6-diazaspiro[3.3]heptane-6-carboxylate] | 109%
17 | CO[C@@H]1CN(C(=O)c2cc(C)ccc2C)C[C@H]1Oc1cccc(CS(=O)(=O)N2CCCC2c2ccc(C)nc2)c1 (relative stereo) [Example 112, trans-(2,5-dimethylphenyl)(3-methoxy-4-(3-(((2-(6-methylpyridin-3-yl)pyrrolidin-1-yl)sulfonyl)methyl)phenoxy)pyrrolidin-1-yl)methanone] | 77%
18 | CO[C@@H]1CN(C(=O)c2cc(C)ccc2C)C[C@H]1Oc1cccc(C(F)S(=O)(=O)N2CCCC2c2ccccn2)c1 (relative stereo) [Example 110, trans-(2,5-dimethylphenyl)(3-(3-(fluoro((2-(pyridin-2-yl)pyrrolidin-1-yl)sulfonyl)methyl)phenoxy)-4-methoxypyrrolidin-1-yl)methanone] | 67%
19 | CCc1cccc(C)c1C(=O)N1C[C@@H](OC)[C@H](Oc2cccc(CS(=O)(=O)N(C)C3CCOCC3)c2)C1 (relative stereo) [Example 155, trans-1-(3-((-1-(2-ethyl-6-methylbenzoyl)-4-methoxypyrrolidin-3-yl)oxy)phenyl)-N-methyl-N-(tetrahydro-2H-pyran-4-yl)methanesulfonamide] | 108%
20 | CO[C@@H]1CN(C(=O)c2cc(C)ccc2C)C[C@H]1Oc1cccc(CS(=O)(=O)N2CCCC2c2cccnc2C)c1 (relative stereo) [Example 114, trans-(2,5-dimethylphenyl)(3-methoxy-4-(3-(((2-(2-methylpyridin-3-yl)pyrrolidin-1-yl)sulfonyl)methyl)phenoxy)pyrrolidin-1-yl)methanone] | 100%
21 | CCc1cccc(C)c1C(=O)N1C[C@@H](OC)[C@H](Oc2cccc(C(F)S(=O)(=O)N(C)C3CCOCC3)c2)C1 (relative stereo) [Example 154, trans-1-(3-((1-(2-ethyl-6-methylbenzoyl)-4-methoxypyrrolidin-3-yl)oxy)phenyl)-1-fluoro-N-methyl-N-(tetrahydro-2H-pyran-4-yl)methanesulfonamide] | 99%
